This is an account of results in paper PMC6102213, “Repurposing Thioridazine (TDZ) as an anti-inflammatory agent” (Scientific Reports, 2018).

The target in this assay is T1, IKKβ (Homo sapiens, UniProt O14920).
T1 construct: gene IKBKB
T1 sequence (O14920 1-756): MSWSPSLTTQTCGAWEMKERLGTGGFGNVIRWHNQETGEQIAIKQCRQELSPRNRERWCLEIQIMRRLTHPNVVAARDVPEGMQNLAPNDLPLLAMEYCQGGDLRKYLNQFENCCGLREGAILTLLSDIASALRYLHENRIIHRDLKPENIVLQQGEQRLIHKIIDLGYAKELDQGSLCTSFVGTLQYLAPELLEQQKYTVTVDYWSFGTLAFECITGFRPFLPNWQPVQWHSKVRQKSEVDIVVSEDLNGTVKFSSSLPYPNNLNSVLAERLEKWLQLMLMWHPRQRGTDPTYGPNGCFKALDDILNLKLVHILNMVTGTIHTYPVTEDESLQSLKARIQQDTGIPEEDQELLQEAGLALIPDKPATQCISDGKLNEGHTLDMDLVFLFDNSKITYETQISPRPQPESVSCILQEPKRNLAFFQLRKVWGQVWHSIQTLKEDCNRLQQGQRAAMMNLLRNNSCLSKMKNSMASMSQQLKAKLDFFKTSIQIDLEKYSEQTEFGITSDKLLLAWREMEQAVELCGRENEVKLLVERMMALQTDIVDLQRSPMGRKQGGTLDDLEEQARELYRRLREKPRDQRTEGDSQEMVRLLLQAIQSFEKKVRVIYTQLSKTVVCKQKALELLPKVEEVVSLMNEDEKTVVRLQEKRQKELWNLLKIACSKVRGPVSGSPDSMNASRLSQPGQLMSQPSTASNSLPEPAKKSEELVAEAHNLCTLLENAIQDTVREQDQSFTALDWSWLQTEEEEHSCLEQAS
The experiment in a line: ADP-Glo IKKβ kinase assay (Promega), […] ng IKKβ, IKKtide, […] ATP. In kind it is biochemical.

SMILES strings stand for the structures.

In turn, `CSc1ccc2c(c1)N(CCC1CCCCN1C)c1ccccc1S2` (stereo not shown) [TDZ, Thioridazine] came in with an IC50 of 3.63 nM.

As a reminder, the IC50 is the concentration that inhibits the measured activity by half.
